# Counter-ions that a name gives are not always drawn.
# What was measured:
# [1] = Solubility in water and aqueous phosphate buffer pH 7; format: physicochemical; settings: for Solubility Buffer pH 7 (phosphate, 100 mM): aqueous phosphate buffer pH 7, 100 mM
# Procedure: Solubility was measured in water and aqueous phosphate buffer (pH=7, 100 mM). Results are expressed as mg dissolved compound per mL solvent.
# [2] = Hygroscopicity, static method (European Pharmacopoeia Technical Guide), weight increase in humidity cabinet; format: physicochemical; settings: for Increase in weight (Δm): after exposure to 79% RH for 24 h, RT
# Procedure: Hygroscopicity was evaluated using the static method according to European Pharmacopoeia Technical Guide. Weight increase of the compound was observed when stored in a humidity cabinet at RT/79% RH for 24 h.
# [3] = Pharmacokinetic assessment after oral (gavage) administration in rats; format: in vivo, male Wistar rats; settings: for mean exposure, area under the curve (AUC0-inf.): oral (gavage) 10 mg per kg, male Wistar rats, blood samples over 24 h
# Procedure: The pharmacokinetic parameters after oral (gavage) administration of 10 mg per kg of 1-[2-(4-benzyl-4-hydroxy-piperidin-1-yl )-ethyl]-3-(2-methyl-quinolin-4-yl )-urea given as free base or sulfate salt have been determined in male Wistar rats. Blood samples were taken over a time period of 24 h after dosing and analysed with a specific and sensitive liquid chromatography-mass-spectrometry (LC-MS/MS) method. Pharmacokinetic parameters were calculated using a non-compartmental method. The mean exposure of 1-[2-(4-benzyl-4-hydroxy-piperidin-1-yl)-ethyl]-3-(2-methyl-quinolin-4-yl)-urea, expressed as area under the curve (AUC0-inf.), after administration of compound I as free base was 194 ng*h/mL. The mean exposure of 1-[2-(4-benzyl-4-hydroxy-piperidin-1-yl )-ethyl]-3-(2-methyl-quinolin-4-yl )-urea expressed as area under the curve (AUC0-inf.), after administration of the compound described in Example 1 was 396 ng*h/mL.
# urotensin II receptor = target: T1, urotensin II receptor (Homo sapiens, UniProt Q9UKP6); settings: Clozel et al., J. Pharmcol. Exp. Ther. 2004, 311, 204-212; cited from earlier work
# T1 sequence (Q9UKP6 1-389): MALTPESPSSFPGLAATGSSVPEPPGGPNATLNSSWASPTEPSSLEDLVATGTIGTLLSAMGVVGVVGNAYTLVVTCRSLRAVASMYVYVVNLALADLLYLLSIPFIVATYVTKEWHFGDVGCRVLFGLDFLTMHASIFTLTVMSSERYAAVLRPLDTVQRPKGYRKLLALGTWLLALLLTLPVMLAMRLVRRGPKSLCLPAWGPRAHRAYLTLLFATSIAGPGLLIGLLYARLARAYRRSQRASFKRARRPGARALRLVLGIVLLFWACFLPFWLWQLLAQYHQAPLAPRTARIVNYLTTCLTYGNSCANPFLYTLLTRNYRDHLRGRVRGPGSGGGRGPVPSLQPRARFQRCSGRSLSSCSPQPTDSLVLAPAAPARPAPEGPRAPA
# [4] = Stress test / behaviour at higher temperature and higher humidity; format: physicochemical
# Procedure: NMR spectra were recorded on a Varian Mercury 300VX NMR Spectrometer. The spectra are referenced to tetramethylsilane as external standard. X-ray diffraction patterns (XRD) were recorded on a Bruker D5000, using a CU-Kalpha (1.5418 Å) source, a 40 kV-30 mA generator, in a range of 3 et 40° (2theta). Stress test studies were done by exposing samples in open and closed glass bottles to the following conditions: 60° C./80% RH (8 weeks) and 80° C./RH not controlled (48 h).
structure (smiles),measurement,setting,value
"Cc1cc(NC(=O)NCCN2CCC(O)(Cc3ccccc3)CC2)c2ccccc2n1 [Example 2, 1-[2-(4-Benzyl-4-hydroxy-piperidin-1-yl)-ethyl]-3-(2-methyl-quinolin-4-yl)-urea sulfate]","Solubility Buffer pH 7 (phosphate, 100 mM)",[1]; sulfate,27 mg/mL
same,Solubility water,"[1]; water, sulfate",11.3 mg/mL
same,Increase in weight (Δm),[2]; sulfate,4%
"Cc1cc(NC(=O)NCCN2CCC(O)(Cc3ccccc3)CC2)c2ccccc2n1 [Example 1, 1-[2-(4-Benzyl-4-hydroxy-piperidin-1-yl)-ethyl]-3-(2-methyl-quinolin-4-yl)-urea sulfate]","mean exposure, area under the curve (AUC0-inf.)",[3]; sulfate,396 ng·h/mL
"Cc1cc(NC(=O)NCCN2CCC(O)(Cc3ccccc3)CC2)c2ccccc2n1 [Compound I, 1-[2-(4-Benzyl-4-hydroxy-piperidin-1-yl)-ethyl]-3-(2-methyl-quinolin4-yl)-urea]","Solubility Buffer pH 7 (phosphate, 100 mM)",[1],0.31 mg/mL
same,Solubility water,[1]; water,0.8 mg/mL
same,solubility in water at pH 7 (in words),[1]; water at pH 7,slightly soluble
same,urotensin II receptor antagonism,urotensin II receptor,potent urotensin II receptor antagonist
same,"mean exposure, area under the curve (AUC0-inf.)",[3]; listed as compound I as free base,194 ng·h/mL
same,bioavailability after oral dosing,"[3]; rat, oral dosing",low bioavailability
same,agglomeration,[4],agglomerates to a substance cake
same,colour stability,[4],its colour changes at higher temperature and higher humidity
same,hygroscopicity (in words),[2],hygroscopic
same,Increase in weight (Δm),[2]; listed as Compound I as free base,8%
"Cc1cc(NC(=O)NCCN2CCC(O)(Cc3ccccc3)CC2)c2ccccc2n1 [Example 5, 1-[2-(4-Benzyl-4-hydroxy-piperidin-1-yl)-ethyl]-3-(2-methyl-quinolin-4-yl)-urea malate]",Solubility water,"[1]; water, malate",>101 mg/mL
"Cc1cc(NC(=O)NCCN2CCC(O)(Cc3ccccc3)CC2)c2ccccc2n1.O=C(O)CC(O)(CC(=O)O)C(=O)O [Example 6, 1-[2-(4-Benzyl-4-hydroxy-piperidin-1-yl)-ethyl]-3-(2-methyl-quinolin-4-yl)-urea citrate]",solubility,[1]; water,17.8 mg/mL

# From patent US20060079552A1, “1-[2-(4-benzyl-4-hydroxy-piperidin-1-yl)-ethyl]-3-(2-methyl-quinolin-4-yl)-urea salt” (priority 2004, published 2006)
